Data published in patent publication US20060276468A1, “Wood preservative formulations comprising Imazalil” (priority 2005, published 2006).

Test system: decay organisms
Test: soil contact veneer exposure test: dip-treated Scots pine sapwood veneers half buried in damp compost, pulled by hand weekly until failure
Settings: for average time for failure to occur (half life): biocide alone: 0.6% dichlorophen, 0.2% triclosan, 0.8% fenarimol, 0.8% PHMB, 0.4% imazalil sulfate, 6 veneers; for Half life for fungicide at 2% active ingredient (ai) / estimated expected half life for 1% fungicide plus 1% Imazalil sulfate / Half life for 1% fungicide plus 1% Imazalil sulfate: Example 3; for half life, Low level with 0.8% Imazalil sulfate: 0.8% fungicide plus 0.8% imazalil sulfate, IMS; for synergy of the combination with imazalil sulfate: actual versus expected average time to failure; for half life, Low level with 0.8% Imazalil: 0.8% fungicide plus 0.8% imazalil, IMS (alcohol)
Source text: The present invention also provides a simple exposure test for evaluating the wood preserving abilities of candidate ingredients or compositions. This exposure test is based on the premise that small dimension timber test specimens tend to fail more quickly than larger ones in soil contact situations.
It is preferable that the thickness of the veneers be greater than 0.1 mm, as veneers of lesser thickness can often be pulled apart by hand without undergoing exposure to decay organisms. Veneers which are thicker than 0.4 may take an excessive amount of time to fail the exposure test. In one embodiment, the thickness of the veneers is about 0.2 mm and the wood is the sapwood of the Scots pine (Pinus sylvestris). Other woods and thicknesses can be used. […] An example of convenient width and length dimensions are 15×50 mm. However, width and length are not critical provided they are kept consistent within a test, although very large or small length or width dimensions may be difficult to handle.
Accordingly, the test of the present invention comprises testing the integrity of a veneer after exposure to a decay-inducing environment. In one embodiment, this environment is damp compost in which decay organisms are present and water is present at just above the water holding capacity of the compost. If desired, other media can be used, and the test can be conducted at water contents which are below, at, or above the water-holding capacity of the media.
In general, the integrity of the veneer is inversely related to the length of exposure to the decay promoting environment. The integrity of the veneer can be tested by applying a force to the veneer and noting whether or not the veneer breaks. Thus, if wood preservative agents are applied to the veneers, these veneers would be expected to withstand longer exposure to the environment without breaking compared to control veneers without breaking.
The force applied to the veneers is preferably a force which pulls the two ends in opposite directions. The force can be applied by the use of an instrument or manually. If there is significant decay the veneer will break, generally near the junction between the portion submerged in the decay accelerating medium and the portion exposed to air. If the force is applied manually, it is preferable that the same individual conduct the test at the various exposure time points.
The veneers were cut such that both late wood and early wood were present in each veneer. The following biocides were tested: imazalil sulfate, dichlorophen, fenarimol, triclosan, and PHMB. To allow the mixing together of the five selected biocides in any combination the biocides were formulated such that they could be mixed together (all the percentages are mass/mass):
Test solutions were prepared and sets of veneers were dip treated such that there were 6 replicate veneers for each treatment under investigation. Additionally six veneers were dip treated in deionised water to act as water controls. […] Plastic containers (approximately 350×220 mm by at least 60 mm high) were part filled with John Innes Number 2 potting compost at a little above its water holding capacity. The veneers for this particular test were placed in six rows within a container such that approximately half the veneer was below the compost and half above. The veneers were placed in the compost such than those given a particular treatment were distributed throughout the container and were not grouped together. The containers, compost and veneers were weighed then incubated at about 30° C. and near 100% relative humidity in an incubator. Each week during the test the assembly was reweighed and deionised water added to bring it back to its original mass. After 3 weeks each veneer was examined in turn. It was held between the fore finger and thumb at each end and pulled to see if it could be broken. If it could be pulled apart a failure was recorded.

[1] = Example 9, 1.4% BBIT or 0.4% imazalil sulfate alone, formulations which can be mixed together
[2] = unnumbered table, solutions in IMS
[3] = Example 10, additive expectation
[4] = Example 10, solutions in IMS (alcohol)
[5] = Example 5, solutions in acetone
[6] = Example 7, solutions in acetone

1H-imidazole,1-(2-(2,4-dichlorophenyl)-2-(2-propenyloxy)ethyl)-, sulfate [Imazalil sulfate]
average time for failure to occur (half life) (Example 1): 5.17 weeks | average time for failure to occur, No Quat (Example 2, 0.60% imazalil sulfate alone (Table 3; text b187 says 0.4%)): 5.67 weeks | Half life for fungicide at 2% active ingredient (ai) (solutions in IMS (alcohol)): 6.00 weeks | Half life for fungicide at 2% ai (Example 4, Table 8 title: solutions in acetone (Table 7: deionised water)): 7.17 weeks | half life, No addition [1]: 5.50 weeks | Calculated half life (Example 12, Fluid 1, 0.25% imazalil sulfate in deionized water): 5.00 weeks | Calculated half life (Example 12, Fluid 2, 0.50% imazalil sulfate in deionized water): 6.50 weeks | Calculated half life (Example 12, Fluid 3, 1.00% imazalil sulfate in deionized water): 6.83 weeks | Calculated half life (Example 12, Fluid 4, 1.50% imazalil sulfate in deionized water): 8.17 weeks | half life, No addition (Example 14, 0.6% dichlorophen or 0.4% imazalil sulfate alone): 5.2 weeks | half life, No addition (Example 15, 2.0% alone, solutions in IMS (alcohol)): 7.83 weeks | Calculated half life (Example 16, 0.8% alone, solutions in IMS (alcohol)): 7.00 weeks | Calculated half life (Example 16, 1.6% alone, solutions in IMS (alcohol)): 8.00 weeks | half life, High level (1.6%) (solutions in IMS): 5.83 weeks | half life, Low level (0.8%) (solutions in IMS): 5.00 weeks | half life, High level (1.6%) [2]: 7.00 weeks | half life, Low level (0.8%) [2]: 5.67 weeks

OC(c1ccc(Cl)cc1)(c1cncnc1)c1ccccc1Cl (racemic) [Fenarimol, (±)-2,4′-dichloro-α-(pyrimidin-5-yl)benzhydryl alcohol]
half life, Low level with 0.8% Imazalil sulfate: 6.67 weeks | average time for failure to occur (half life), combination with imazalil sulfate (Example 1, 0.3% dichlorophen, 0.1% triclosan, 0.4% fenarimol or 0.4% PHMB, each plus 0.2% imazalil sulfate): 6.67 weeks | estimated expected average time for failure, combination with imazalil sulfate (Example 1, additive expectation, midway between the two single biocides): (6.17) weeks | average time for failure to occur (half life) (Example 1): 7.17 weeks | synergy of the combination with imazalil sulfate: positive synergy | half life, High level (1.6%) (solutions in IMS): 5.00 weeks | half life, Low level (0.8%) (solutions in IMS): 4.50 weeks

CC(Cc1ccc(C(C)(C)C)cc1)CN1C[C@@H](C)O[C@@H](C)C1 (mixture of isomers) [Fenpropimorph, (±)-cis-4-[3-(4-tert-butylphenyl)-2-methylpropyl]-2,6-dimethyl=morpholine]
estimated expected half life for 1% fungicide plus 1% Imazalil sulfate (additive expectation): 5.34 weeks | Half life for 1% fungicide plus 1% Imazalil sulfate (solutions in IMS (alcohol)): 5.67 weeks | Half life for fungicide at 2% active ingredient (ai) (solutions in IMS (alcohol)): 4.67 weeks | half life, Low level with 0.8% Imazalil (Example 10): 5.83 weeks | estimated expected half life, Low level with 0.8% Imazalil [3]: (5.17 weeks) | half life, High level (1.6%) [4]: 4.17 weeks | half life, Low level (0.8%) [4]: 3.67 weeks

CCCCn1sc2ccccc2c1=O [BBIT, N-butyl-1,2-benzisothiazolin-3-one]
half life, With Imazalil sulfate (Example 9, 0.7% BBIT plus 0.2% imazalil sulfate): 7.33 weeks | half life, No addition [1]: 8.33 weeks | estimated expected half life, With Imazalil sulfate (Example 9, additive expectation): {6.92 weeks}

OB(O)O [Boric acid]
half life, Low level with 0.8% Imazalil sulfate (unnumbered table): 5.33 weeks | expected half life, Low level with 0.8% Imazalil sulfate (unnumbered table, additive expectation): {5.57 weeks} | half life, High level (1.6%) [2]: 4.50 weeks | half life, Low level (0.8%) [2]: 3.83 weeks

N#Cc1c(Cl)c(Cl)c(Cl)c(C#N)c1Cl [Chlorothalonil, tetrachloroisophthalonitrile]
estimated expected half life for 1% fungicide plus 1% Imazalil (Example 5, additive expectation): {9.92 weeks} | Half life for 1% fungicide plus 1% Imazalil [5]: 10.67 weeks | Half life for fungicide at 2% ai [5]: 12.17 weeks

CC(C1CC1)C(O)(Cn1cncn1)c1ccc(Cl)cc1 (stereo not drawn) [Cyproconazole, α-(4-chlorophenyl)-α-(1-cyclopropylethyl)-=1H-1,2,4-triazol-1-ethanol]
estimated expected half life, Low level (0.8%) plus 0.8% Imazalil (Example 7, additive expectation): {5.42 weeks} | half life, High level (1.6%) [6]: 4.67 weeks | half life, Low level (0.8%) [6]: 4.17 weeks | half life, Low level (0.8%) plus 0.8% Imazalil [6]: 6.17 weeks | half life, Low level with 0.8% Imazalil (Example 10): 6.17 weeks | estimated expected half life, Low level with 0.8% Imazalil [3]: (5.42 weeks) | half life, High level (1.6%) [4]: 4.67 weeks | half life, Low level (0.8%) [4]: 4.17 weeks

CCCCCCCCCC[N+](C)(C)CCCCCCCCCC.[Cl-] [DDAC, didecyl dimethyl ammonium chloride]
half life, Low level with 0.8% Imazalil sulfate: 5.50 weeks | average time for failure to occur, quat with Imazalil sulfate (Example 2, 0.18% active quat plus 0.30% imazalil sulfate (Table 3; text b187 says 0.2%)): 5.50 weeks | average time for failure to occur, Quat Only (Example 2, 0.36% active quat in deionised water): 4.17 weeks | estimated expected half life for 1% fungicide plus 1% Imazalil sulfate (additive expectation): 5.50 weeks | Half life for 1% fungicide plus 1% Imazalil sulfate (solutions in IMS (alcohol)): 6.50 weeks | Half life for fungicide at 2% active ingredient (ai) (solutions in IMS (alcohol)): 5.00 weeks | synergy of the combination with imazalil sulfate: evidence of synergy | expected half life, Low level with 0.8% Imazalil sulfate (additive expectation): {5.58 weeks} | half life, High level (1.6%) (solutions in IMS): 5.33 weeks | half life, Low level (0.8%) (solutions in IMS): 5.00 weeks
